Patent US20130281313A1, “PROGNOSTIC AND/OR PREDICTIVE BIOMARKERS AND BIOLOGICAL APPLICATIONS THEREOF” (INSTITUT GUSTAVE ROUSSY, priority 2010, published 2013)

Legend:
Assay type in all cases: cell-based, human
[1] = tested on: A549 cells; assay: Targeted metabolomic studies (ATP, ADP, AMP, GSH; RRLC-MS); settings: A549 cells, 24 h
Procedure: A549 cells were left untreated or treated with 25 μM CDDP alone or in combination with 5 mM PN, for 24 h. Thereafter, both attached (living) and detached (dying/dead) cells were harvested, washed once in cold PBS and pelleted (800 G for 5 min). Pellets were resuspended in 200 μL deionized water, briefly vortexed and sonicated. 800 μl ice-cold methanol was added, and samples were kept in ice for 15 min, vortexed and centrifuged at 13,000 G for 10 min at 4° C. Supernatants were dried in a SpeedVac drier (Thermo Scientific-Pierce) and stored at −80° C. until analysis. Pellets were resuspended in 150 μL 98:2 water/acetonitrile immediately before analytical determinations (see below).
ATP, ADP, AMP and GSH were quantified on a Rapid Resolution Liquid Chromatography (RRLC) 1200SL system coupled to a 6410 Triple Quadripole (QQQ) mass spectrometer (both from Agilent Technologies). For nucleotides, RRLC was performed on 150×2.1 mm, 3.5 μM Eclipse Plus columns (Agilent Technologies) with water containing 4 mM dimethylhexylamine (DMHA) plus 0.01% (v/v) acetic acid in channel A and acetonitrile in channel B, in gradient mode at a flow rate of 0.2 mL/min: t=0 min 2% B; t=9 min 32% B; t=10 min 95% B; T=12 min 95% B, re-equilibration time=6 min. Mass spectrometry was performed in positive electrospray ionization mode at +4 kV on the QQQ system operating in MRM mode. MRM transitions were optimized with direct infusions of ATP, ADP, and AMP standards with direct infusion, and four transitions were recorded for each compounds. Parent ions were adduct ions of DMHA and also proton adducts:
For GSH, RRLC was performed on a 150×2.1 mm, 3.5 μM Stable Bond AQ column (Agilent Technologies) with water containing 0.2% (v/v) acetic acid in channel A and methanol in channel B, in gradient mode at a flow rate of 0.3 mL/min: t=0 min 2% B; t=8 min 95% B; t=9 min 95% B; re-equilibration time=6 min. Mass spectrometry was performed as above. MRM transitions were optimized with direct infusion of GSH standards.
Data collection and analysis were performed with the MassHunter software (Agilent Technologies).

[2] = tested on: A549 cells; assay: Cytofluorometric assessment of cell death (DiOC6(3)/PI co-staining)
[3] = tested on: A549 cells; assay: Quantification of intracellular PN (LC-MS/MS); settings: 24 or 48 h
Procedure: A549 cells were cultured in absence or the presence of 5 mM PN for 24 or 48 h, harvested, washed once in cold PBS and pelleted at 800 G for 10 min. Supernatants were discarded and pellets were dissolved in 500 μL of deionized H2O by vortexing for 1 min followed by sonication for 10 min. Thereafter, lysates were centrifuged at 5,796 G for 10 min and 60 μL of the resulting supernatant were mixed with an equal volume of trichloroacetic acid (TCA). Upon additional centrifugation (5,796 G, 10 min), 50 μL of sample were injected onto the chromatographic column and PN was measured by liquid chromatography with tandem mass spectrometry (LC-MS/MS), as previously described {Johansson, 2010; Midttun, 2009}.

[4] = tested on: CDDP-resistant A549 clones (A549 #1-3), HCC827, H1299, H1650, H1975, HeLa, U2OS and WT HCT 116 cells; assay: Cytofluorometric assessment of cell death, CDDP alone or combined with PN, panel of cell lines; settings: sub-apoptotic dose of CDDP alone or combined with 2.5 mM PN
Excerpt: (A-C) Cytofluorometric assessment of cell death induced by the indicated sub-apoptotic dose of cisplatin (CDDP) alone or combined with PN in 3 distinct CDDP-resistant A549 clones (A549 #1-3, A), in 4 non-small cell lung cancer (NSCLC) cell lines other than A549 (HCC827, H1299, H1650 and H1975 cells, B), in cervical carcinoma HeLa cells, in osteosarcoma U2OS cells as well as in wild type (WT) or TP53^−/− colon carcinoma HCT 116 cells (C).
Unless otherwise specified, chemicals were purchased from Sigma-Aldrich (St. Louis, USA), culture media and supplements for cell culture from Gibco-Invitrogen (Carlsbad, USA) and plasticware from Corning (Corning, USA). Anti-human interleukin 6 (IL6, goat antiserum #AB-206-A) and IL6 receptor (IL6R, goat antiserum #AB-227-A) neutralizing antibodies were purchased by R&D Systems (Minneapolis, USA). Orlistat (Xenical®) was obtained from Roche (Basel, Switzerland). […]
To measure apoptosis-related parameters, living cells were labeled for 30 min at +37° C. with 40 nM 3,3′dihexyloxalocarbocyanine iodide (DiOC6(3), from Molecular Probes-Invitrogen, Eugene, USA), which quantifies the mitochondrial transmembrane potential (Δψm), plus 1 μg/mL propidium iodide (PI), which only accumulates in cells with ruptured plasma membrane {Galluzzi, 2009; Galluzzi, 2008; Galluzzi, 2007}. […]

In the case of `N.N.[Cl][Pt][Cl]` [CDDP, cis-diammineplatinum(II) dichloride], the “intracellular levels of GSH” value ([1]; 25 μM CDDP) is reported as “a decrease in the intracellular levels of GSH”.
With `Cc1ncc(CO)c(CO)c1O` [PN, pyridoxine] the “CDDP-induced cell death upon acute addition of the vitamer (DiOC6(3)/PI co-staining)” value ([2]; A549 cells, 25 μM CDDP, co-treated for 48 h) was “exacerbated CDDP-induced cell death”, the “effects of PN on CDDP-induced cell death upon PDXK depletion” value ([2]; siPDXK-transfected A549 cells, CDDP) was “lost upon PDXK depletion” and the “Atkinson's energy charge” value ([1]; 25 μM CDDP and 5 mM PN in combination, not present with either compound alone) was “exhibited a bioenergetic defect”. The “CDDP-induced decrease in GSH and redox-relevant metabolites (carnitine, acetylcarnitine, propionylcarnitine)” value ([1]; 25 μM CDDP with 5 mM PN) was “largely exacerbated by PN”, the “intracellular PN concentration upon acute addition” value [3] was “increased the intracellular PN concentration” and the “chemosensitization to CDDP in other cancer cell lines” value [4] was “exerted chemosensitizing effects”.
